Laboratory results published in US20100022491A1, “4-HYDROXY-2-OXO-2,3-DIHYDRO-1,3-BENZOTHIAZOL-7YL COMPOUNDS FOR MODULATION OF B2-ADRENORECEPTOR ACTIVITY” (ASTRAZENECA AB, priority 2006, published 2010).
Counter-ions that a name gives are not always drawn.

Legend:
[1] = target: T1, recombinant human Dopamine Subtype D2s receptors (Homo sapiens, UniProt P14416); assay: Dopamine D2 selectivity binding assay ([3H]-spiperone); conditions: inhibition of [3H]-spiperone (0.16 nM) binding; read-out: D2 bind pIC50 (converted)
T1 construct: purchased Perkin Elmer
T1 sequence (P14416 1-414 isoform P14416-2): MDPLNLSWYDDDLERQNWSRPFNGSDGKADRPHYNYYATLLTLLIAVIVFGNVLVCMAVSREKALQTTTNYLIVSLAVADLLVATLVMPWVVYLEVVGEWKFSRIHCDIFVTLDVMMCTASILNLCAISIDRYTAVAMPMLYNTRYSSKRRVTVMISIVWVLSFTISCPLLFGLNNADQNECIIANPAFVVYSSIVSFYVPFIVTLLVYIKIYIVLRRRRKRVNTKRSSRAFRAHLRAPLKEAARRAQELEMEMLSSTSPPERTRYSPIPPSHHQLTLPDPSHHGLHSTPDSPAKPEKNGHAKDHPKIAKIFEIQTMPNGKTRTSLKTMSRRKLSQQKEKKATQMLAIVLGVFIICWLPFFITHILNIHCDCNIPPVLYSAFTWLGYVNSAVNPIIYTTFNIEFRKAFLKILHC
Summary of the method: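 Recombinant human D2s membranes incubated 2 h at room temperature with 0.16 nM [3H]-spiperone in HEPES/EDTA/NaCl/gelatin buffer, pH 7.4; 10 μM haloperidol defined non-specific binding. Filter-bound radioactivity counted after cold washes. pIC50 from 4-parameter logistic fit of NSB-corrected specific binding.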

[2] = target: T2, recombinant human α1D receptor (Homo sapiens, UniProt P25100); assay: Adrenergic α1D selectivity binding assay ([3H]-prazosin); conditions: inhibition of [3H]-prazosin (0.3 nM) binding, HEK293 membranes; read-out: α1 bind pIC50 (converted)
T2 construct: expressed in transfected cells; host or cells: HEK293
T2 sequence (P25100 1-572): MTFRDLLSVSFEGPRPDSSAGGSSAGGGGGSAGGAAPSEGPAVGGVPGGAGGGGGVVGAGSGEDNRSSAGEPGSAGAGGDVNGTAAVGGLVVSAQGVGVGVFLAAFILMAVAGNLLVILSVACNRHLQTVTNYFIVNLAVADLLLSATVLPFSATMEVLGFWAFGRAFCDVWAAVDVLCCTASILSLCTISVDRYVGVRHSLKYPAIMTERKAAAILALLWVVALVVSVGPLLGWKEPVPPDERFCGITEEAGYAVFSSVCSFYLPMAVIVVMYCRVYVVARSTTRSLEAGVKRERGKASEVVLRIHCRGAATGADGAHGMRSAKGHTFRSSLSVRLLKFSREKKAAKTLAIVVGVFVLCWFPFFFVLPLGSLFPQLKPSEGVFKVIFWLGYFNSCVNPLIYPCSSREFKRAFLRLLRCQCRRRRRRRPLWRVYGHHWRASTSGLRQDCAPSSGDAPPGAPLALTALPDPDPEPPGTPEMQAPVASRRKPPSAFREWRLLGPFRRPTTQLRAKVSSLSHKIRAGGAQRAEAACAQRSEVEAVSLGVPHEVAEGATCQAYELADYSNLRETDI
Summary of the method: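 HEK293 membranes with recombinant human α1D receptor incubated 2 h at room temperature with 0.3 nM [3H]-prazosin and compound in 50 mM HEPES, 1 mM EDTA, 0.1% gelatin, pH 7.4; BMY7378 (10 μM) defined non-specific binding. Filter-bound radioactivity counted; pIC50 from four-parameter logistic fit.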

SMILES | IC50 [1] [nM] | IC50 [2] [nM]
COc1ccc(CCNCCC(=O)N(CCNCCc2ccc(O)c3[nH]c(=O)sc23)C2CCCCCC2)cc1OC [Example 86, N^1-Cycloheptyl-N^3-[2-(3,4-dimethoxyphenyl)ethyl]-N^1-(2-{[2-(4-hydroxy-2-oxo-2,3-dihydro-1,3-benzothiazol-7-yl)ethyl]amino}ethyl)-β-alaninamide bis-trifluoroacetic acid salt] | 200 | 251
O=C(CCNCCc1ccccc1)N(CCNCCc1ccc(O)c2[nH]c(=O)sc12)C1CCC(F)(F)CC1 [Example 4, N-(4,4-Difluorocyclohexyl)-N-(2-{[2-(4-hydroxy-2-oxo-2,3-dihydro-1,3-benzothiazol-7-yl)ethyl]amino}ethyl)-N^3-(2-phenylethyl)-β-alaninamide bis-trifluoroacetic acid salt] | 2000 | 200
Cc1cccc(CCNCCC(=O)N(CCNCCc2ccc(O)c3[nH]c(=O)sc23)C2CCCCCC2)c1 [Example 85, N^1-Cycloheptyl-N^1-(2-{[2-(4-hydroxy-2-oxo-2,3-dihydro-1,3-benzothiazol-7-yl)ethyl]amino}ethyl)-N^3-[2-(3-methylphenyl)ethyl]-β-alaninamide bis-trifluoroacetic acid salt] | 79.4 | 50.1
O=C(CCNCCc1ccccc1)N(CCNCCc1ccc(O)c2[nH]c(=O)sc12)C1CCCCC1 [Example 5, N-Cyclohexyl-N-(2-{[2-(4-hydroxy-2-oxo-2,3-dihydro-1,3-benzothiazol-7-yl)ethyl]amino}ethyl)-N^3-(2-phenylethyl)-β-alaninamide bis-trifluoroacetic acid salt] | 398 | 100

Second part, the molecule after the results:

IC50 [1] [nM] | IC50 [2] [nM] | SMILES
79.4 | 63.1 | O=C(CCNCCc1cccc(O)c1)N(CCNCCc1ccc(O)c2[nH]c(=O)sc12)C1CCCCCCC1 [Example 90, N^1-Cyclooctyl-N^1-(2-{[2-(4-hydroxy-2-oxo-2,3-dihydro-1,3-benzothiazol-7-yl)ethyl]amino}ethyl)-N^3-[2-(3-hydroxyphenyl)ethyl]-β-alaninamide bis-trifluoroacetic acid salt]
79.4 | 251 | O=C(CCNCCc1ccc2c(c1)OCCO2)N(CCNCCc1ccc(O)c2[nH]c(=O)sc12)C1CCCCCC1 [Example 88, N-Cycloheptyl-N^3-[2-(2,3-dihydro-1,4-benzodioxin-6-yl)ethyl]-N^1-(2-{[2-(4-hydroxy-2-oxo-2,3-dihydro-1,3-benzothiazol-7-yl)ethyl]amino}ethyl)-β-alaninamide bis-trifluoroacetic acid salt]
39.8 | 251 | O=C(CCNCCc1ccc(O)c2[nH]c(=O)sc12)N(CCNCCc1ccc(O)c2[nH]c(=O)sc12)C1CCCCCC1 [Example 87, bis-trifluoroacetic acid salt]
79.4 | 50.1 | O=C(CCNCCc1ccc(O)c(Cl)c1)N(CCNCCc1ccc(O)c2[nH]c(=O)sc12)C1CCCCC1 [Example 89, N^3-[2-(3-chloro-4-hydroxyphenyl)ethyl]-N^1-cyclohexyl-N^1-(2-{[2-(4-hydroxy-2-oxo-2,3-dihydro-1,3-benzothiazol-7-yl)ethyl]amino}ethyl)-β-alaninamide bis-trifluoroacetic acid salt]
39.8 | 126 | CC1(C)CCC(N(CCNCCc2ccc(O)c3[nH]c(=O)sc23)C(=O)CCNCCc2cccc(O)c2)CC1 [Example 91, N^1-(4,4-Dimethylcyclohexyl)-N^1-(2-{[2-(4-hydroxy-2-oxo-2,3-dihydro-1,3-benzothiazol-7-yl)ethyl]amino}ethyl)-N^3-[2-(3-hydroxyphenyl)ethyl]-β-alaninamide bis-trifluoroacetic acid salt]
